Source: BindingDB's records for doi:10.1021/acs.jmedchem.6b01247 (University of Chinese Academy of Sciences, 2016)

Tests used:
[1] = Inhibition of Smo in mouse Shh Light2 cells assessed as inhibition of SAG-induced Hh pathway activity by measuring SAG-EC50 at 50 nM measured after 36 hrs by Gli-luciferase reporter gene assay (Rvb = 2.93 nM)
[2] = Inhibition of Smo in mouse Shh Light2 cells assessed as inhibition of SAG-induced Hh pathway activity by measuring SAG-EC50 at 500 nM measured after 36 hrs by Gli-luciferase reporter gene assay (Rvb = 2.93 nM)
[3] = Inhibition of Smo in mouse Shh Light2 cells assessed as inhibition of SAG-induced Hh pathway activity by measuring SAG-EC50 at 100 nM measured after 36 hrs by Gli-luciferase reporter gene assay (Rvb = 2.93 nM)

## Cc1ccc2c(n1)[C@H]([C@@H](C)C(=O)Nc1ccc(Cl)c(-c3nc4ccccc4n3C)c1)CC[C@H]2C
[1]
  EC50: 24 nM
[2]
  EC50: 137 nM
[3]
  EC50: 47 nM
